Broadly, the IC50 is the midpoint of a concentration-inhibition curve.

The source of these data is patent publication US7455861B2, “Angelicae sinensis extracts useful for treatment of cancers” (priority 2004, dated 2008).

One series concerns DBTRG-05MG. In words: Cytotoxicity (IC50) on DBTRG-05MG. In kind it is cell-based. To be noted: Homo sapiens. The protocol:
(§1) Human tumor cell lines (MCF-7, CL1-5, HT-29, Caco-2), human umbilical vascular endothelial cells (HUVEC), and human dermal fibroblasts (HDF) were tested for sensitivity on Angelicae sinensis extracts, ligustilide, n-butylidenephthalide and its derivatives in vitro. The DBTRG-05MG, BCM, HL-60 and J5 cells were grown in RPMI-1640 medium containing 10% fetal calf serum and 100 ng/ml penicillin and […] streptomycin at 37° C. in a humidified atmosphere with 5% CO2. The G5T/VGH, RG2, Ni 8, SVEC and Balb/3T3 cells were cultured in DMEM with 10% fetal calf serum and 100 ng/ml penicillin and […] streptomycin at 37° C. in 5% CO2. Mycoplasma infection of the culture cells was excluded by PCR screening methods before each experiment.
The effects on cell viability after the treatments with different concentrations of the Angelicae sinensis extracts or the active components purified therefrom were evaluated by modified MTT assay in triplicate. Briefly, the cells (5×10^3) were incubated into 96-well plates containing 100 μl of a growth medium. The cells were permitted to adhere for 24 hours, then treated with 100 μl of the herbal extracts or the active components dissolved in the medium. The control contained DMSO of <0.02% (v/v). After 24, 48 and 72 h incubation, the drug-containing medium was replaced by 50 μl of fresh medium, and cells in each well were incubated in 50 μl of 400 μg/ml MTT for 6-8 h. The medium and MTT were removed later and 100 μl of DMSO was added to each well and to the control, to dissolve the soluble components. Absorbance at 550 nm of the solutions was measured with MRX Microtiter Plate Luminometer (DYNEX, USA). The absorbance of untreated cells was considered as 100%. To evaluate the effects of the extracts or the active components on cell growth rate of GBM cells, 5×10^3 exponentially growing cells were treated with different concentrations for 24, 48, or 72 h. The cytotoxicity of each test substance was determined as an IC50 value, which represents the drug concentration required to cause 50% inhibition. […]

The subject of another series is MCF-7. In words: Cytotoxicity (IC50) on MCF-7. To be noted: Homo sapiens, MCF7. In kind it is cell-based. The protocol:
as §1
(§2) The effects on cell viability after the treatments with different concentrations of the Angelicae sinensis extracts or the active components purified therefrom were evaluated by modified MTT assay in triplicate. Briefly, the cells (5×10^3) were incubated into 96-well plates containing 100 μl of a growth medium. The cells were permitted to adhere for 24 hours, then treated with 100 μl of the herbal extracts or the active components dissolved in the medium. The control contained DMSO of <0.02% (v/v). […] Absorbance at 550 nm of the solutions was measured with MRX Microtiter Plate Luminometer (DYNEX, USA). The absorbance of untreated cells was considered as 100%. […]

A further series relates to GBM cells (DBTRG-05MG). In words: Apoptosis of GBM cells by TUNEL. In kind it is cell-based, human. As for the experimental part:
Apoptotic cell death was analyzed using In Situ Cell Death Detection Kit, POD (Roche, Germany). Changes in DNA chromatin morphologic features were used for quantification. The procedures were performed in accordance with the manufacturer's instructions. […] In AS-C and BP-treated groups, the suspended cells were collected. In the control group, adherent and floating cells were collected. Then, the cells were fixed with 3.7% formaldehyde at room temperature for 15 min. on saline coated slides, washed once in 1×PBS, and incubated in cold permeabilization solution (0.1% Triton X-100+0.1% sodium citrate) after reducing activity of endogenous peroxidase with 3% H2O2. The cells were washed with 1×PBS again, and incubated with terminal deoxynucleiotidyl transferase (TdT)-mediated dUTP nicks labeling (TUNEL) reaction mixture for 60 minutes at 37° C. Then, the cells were washed with 1×PBS, counterstained with propidium iodide (PI) for cell counting. For quantification of apoptosis, the results were viewed under fluorescence microscopy (Nikon, Kawasaki, Japan).
The apoptotic cells with AS-C treatment were detected by fluorescence microscopy (400×), with In Situ TUNEL staining and propidium iodide cell counterstaining, and observed under light field. Likewise, BP induced apoptosis in GBM cells was assessed by TUNEL method and using propidium iodide as a counter stain. […]

For the next series, the system named is Caco-2. Kind of series: Cytotoxicity (IC50) on Caco-2. In kind it is cell-based. To be noted: Homo sapiens. As for the experimental part: as §1, §2
Series [1] can be described thus: Cytotoxicity (IC50) on HUVEC. In kind it is cell-based, human. The settings on record: human, human umbilical vascular endothelial cells (HUVEC), normal cells, read-out: Cytotoxicity, IC50 HUVEC.
Source text: Human umbilical vascular endothelial cells (HUVECs) were purchased from Cascade Biologics, Inc. (USA). HUVECs were maintained in Medium 200 (Cascade Biologics, Inc. USA) supplemented with 10% fetal bovine serum (FBS; Gibco BRL) and low serum growth supplement (LSGS; Cascade Biologics, Inc. USA). Human dermal fibroblasts (HDFs) were purchased from Cascade Biologics, Inc. (USA). HDFs were maintained in Medium 106 (Cascade Biologics, Inc. USA) supplemented with 10% FBS and low serum growth supplement (LSGS; Cascade Biologics, Inc. USA). The human colon adenocarcinoma cell lines HT-29 were purchased from the ATCC (Manassas, Va. USA). HT-29 were maintained in Dubecco's Modified Eagle Medium (DMEM; Gibco) supplemented with 10% FBS and 100 ng/ml penicillin and […] streptomycin (Life Technologies, Inc., Grand Island, N.Y., USA). For the proliferation assay of cell in log growth (G1), the cells were harvested at 60-80% of confluence. 100 μl of cell suspensions were dispensed onto a Falcon 96-well plates The densities were 6×10^3 cells/well in Medium 200 (for HUVECs), and 9×10^3 cells/well in Medium 106 (for HDFs), and 5×10^3 cells/well in DMEM (for HT-29) supplemented with 10% FBS. The cells were pre-incubated for 24 hours in an incubator (Humidified atmosphere, e.g., at 37° C., 5% CO2). 10 μl of toxicant of various concentrations were added into the culture medium of the plate. The cell cultures were incubated for 48 hours. 10 μl of the Cell Counting Kit-8 (CCK-8; DOJINDO) solution were added and the cell cultures incubated for 1˜4 hours in the incubator. The absorbance was measured at 450 nm, using a microplate reader with a reference wavelength at 600 nm or over.
as §1
The effects on cell viability after the treatments with different concentrations of the Angelicae sinensis extracts or the active components purified therefrom were evaluated by modified MTT assay in triplicate. Briefly, the cells (5×10^3) were incubated into 96-well plates containing 100 μl of a growth medium. The cells were permitted to adhere for 24 hours, then treated with 100 μl of the herbal extracts or the active components dissolved in the medium. The control contained DMSO of <0.02% (v/v). After 24, 48 and 72 h incubation, the drug-containing medium was replaced by 50 μl of fresh medium, and cells in each well were incubated in 50 μl of 400 μg/ml MTT for 6-8 h. The medium and MTT were removed later and 100 μl of DMSO was added to each well and to the control, to dissolve the soluble components. Absorbance at 550 nm of the solutions was measured with MRX Microtiter Plate Luminometer (DYNEX, USA). The absorbance of untreated cells was considered as 100%. To evaluate the effects of the extracts or the active components on cell growth rate of GBM cells, 5×10^3 exponentially growing cells were treated with different concentrations for 24, 48, or 72 h. The cytotoxicity of each test substance was determined as an IC50 value, which represents the drug concentration required to cause 50% inhibition. All experiments in this study were performed in triplicate.

Like-named read-outs stand apart in the source and are kept apart here. Where only a bound is given, the exact number is not on record here.

Regarding `CCCC=C1OC(=O)c2ccccc21` [BP, n-Butylidenephthalide], the IC50 in the series with DBTRG-05MG (Table 2, read-out: Cytotoxicity (IC50) DBTRG-05MG) is 7 to 10 µg/mL; in the series on DBTRG-05MG (Table 2, value in parentheses, read-out: Cytotoxicity (IC50) DBTRG-05MG), 37.2 to 53.2 µM; with MCF-7 (Table 1, value in parentheses), greater than 106 µM; in the series with MCF-7 (cancer cells, Table 1), greater than 20 µg/mL; with Caco-2 (Table 1, value in parentheses), greater than 106 µM; with Caco-2 (cancer cells, Table 1), greater than 20 µg/mL. Further, the half-maximal inhibitory concentration (IC50) is greater than 532 µM in series [1] (Table 1, value in parentheses) and greater than 100 µg/mL in series [1] (Table 1). Besides, the “apoptosis rates of GBM cells compared to untreated cells (TUNEL)” value with GBM cells (DBTRG-05MG) (BP 5 to 800 μM, 48 hours) is listed as “much higher”. Besides, the “detached GBM cells having undergone apoptosis (TUNEL)” value in the series with GBM cells (DBTRG-05MG) (BP 5˜800 μg/ml as printed, 72 hours) was “almost all”.
